The values below come from paper PMC2723102, “The interactome of the amyloid β precursor protein family members is shaped by phosphorylation of their intracellular domains” (Molecular Neurodegeneration, 2009).

The structures appear in SMILES notation.

What all share (assay type): binding
Assay [1] concerns the target T1, GST-X11β (Homo sapiens, UniProt Q99767).
T1 construct: All these targets analyzed contain either an SH2 or a PTB domain fused to GST; made in house; host or cells: bacterial cultures
T1 sequence (Q99767 368-555 limits assumed): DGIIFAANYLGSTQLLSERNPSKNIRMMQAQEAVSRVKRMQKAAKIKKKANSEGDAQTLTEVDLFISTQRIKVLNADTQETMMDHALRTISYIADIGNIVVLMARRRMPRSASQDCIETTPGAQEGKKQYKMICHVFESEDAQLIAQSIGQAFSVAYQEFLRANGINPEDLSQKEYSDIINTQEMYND
Nature of the assay: BIAcore surface plasmon resonance, GST-X11β. Particulars: SPR, BIAcore 3000, strep-tag peptide amine coupled to CM-5 chip (4500–7500 RU), analyte GST-X11β. The source says:
(§1) Binding of GST and GST-Grb2, NUMB p71, and X11β domains to strep-tag AID peptide or different phosphorylation forms was monitored by surface plasmon resonance (SPR) on a BIAcore 3000 machine (BIAcore, Neuchâtel, Switzerland). The strep-tag peptide and different phosphorylation forms of AID peptides were covalently amine coupled to a CM-5 sensor chip by use of the amine covalent coupling. An immobilization level of 4500–7500 resonance units was obtained. A nonderivatized flowcell serves as a reference surface. Interactions between GST and GST-Grb2, NUMB p71, and X11β to strep-tag peptides were determined by the change in signal measured in RU.
(In general: SPR reads the build-up and loss of mass on a sensor chip optically.)

Assay [2] has as its target T2, GST-Grb2 (Homo sapiens, UniProt P62993).
T2 construct: All these targets analyzed contain either an SH2 or a PTB domain fused to GST; made in house; host or cells: bacterial cultures
Nature of the assay: BIAcore surface plasmon resonance, GST-Grb2. Particulars: SPR, BIAcore 3000, strep-tag peptide amine coupled to CM-5 chip (4500–7500 RU), analyte GST-Grb2.
Description: as §1

Assay [3] concerns the target T3, GST-NUMB-p71 (Homo sapiens, UniProt P49757).
T3 construct: All these targets analyzed contain either an SH2 or a PTB domain fused to GST; made in house; host or cells: bacterial cultures
T3 sequence (P49757 33-182 isoform P49757-3): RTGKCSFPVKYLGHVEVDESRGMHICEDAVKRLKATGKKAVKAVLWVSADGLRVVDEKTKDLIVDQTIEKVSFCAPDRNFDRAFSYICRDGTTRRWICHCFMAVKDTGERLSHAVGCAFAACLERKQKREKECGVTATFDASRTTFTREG
Nature of the assay: BIAcore surface plasmon resonance, GST-NUMB-p71. The settings on record: SPR, BIAcore 3000, strep-tag peptide amine coupled to CM-5 chip (4500–7500 RU), analyte GST-NUMB-p71.
Description: as §1

T2 sequence (P62993 60-152 limits assumed): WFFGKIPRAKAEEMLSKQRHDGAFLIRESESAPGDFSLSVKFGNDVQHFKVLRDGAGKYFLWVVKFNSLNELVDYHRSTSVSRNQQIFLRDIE

A word on the Kd: it is the free concentration of one partner at which half of the binding sites on the other are occupied at equilibrium, for simple one-to-one binding. Low values mean higher affinity, high ones lower affinity. As to `CC[C@H](C)[C@H](NC(=O)[C@H](CO)NC(=O)[C@@H](NC(=O)[C@H](Cc1ccc(O)cc1)NC(=O)[C@H](CCC(N)=O)NC(=O)[C@H](CCCCN)NC(=O)[C@H](CCCCN)NC(=O)[C@H](CCCCN)NC(=O)[C@H](CC(C)C)NC(=O)[C@H](CCSC)NC(=O)[C@@H](N)C(C)C)[C@@H](C)O)C(=O)N[C@@H](Cc1c[nH]cn1)C(=O)N[C@@H](Cc1c[nH]cn1)C(=O)NCC(=O)N[C@H](C(=O)N[C@H](C(=O)N[C@@H](CCC(=O)O)C(=O)N[C@H](C(=O)N[C@@H](CC(=O)O)C(=O)N[C@@H](C)C(=O)N[C@@H](C)C(=O)N[C@H](C(=O)N[C@H](C(=O)N1CCC[C@H]1C(=O)N[C@@H](CCC(=O)O)C(=O)N[C@@H](CCC(=O)O)C(=O)N[C@@H](CCCNC(=N)N)C(=O)N[C@@H](Cc1c[nH]cn1)C(=O)N[C@@H](CC(C)C)C(=O)N[C@@H](CO)C(=O)N[C@@H](CCCCN)C(=O)N[C@@H](CCSC)C(=O)N[C@@H](CCC(N)=O)C(=O)N[C@@H](CCC(N)=O)C(=O)N[C@@H](CC(N)=O)C(=O)NCC(=O)N[C@@H](Cc1ccc(OP(=O)(O)O)cc1)C(=O)N[C@@H](CCC(=O)O)C(=O)N[C@@H](CC(N)=O)C(=O)N1CCC[C@H]1C(=O)N[C@H](C(=O)N[C@@H](Cc1ccc(O)cc1)C(=O)N[C@@H](CCCCN)C(=O)N[C@@H](Cc1ccccc1)C(=O)N[C@@H](Cc1ccccc1)C(=O)N[C@@H](CCC(=O)O)C(=O)N[C@@H](CCC(N)=O)C(=O)N[C@@H](CCSC)C(=O)N[C@@H](CCC(N)=O)C(=O)N[C@@H](CC(N)=O)C(=O)O)[C@@H](C)O)[C@@H](C)OP(=O)(O)O)C(C)C)C(C)C)C(C)C)C(C)C` [AIDpTpY], the Kd in assay [1] was 13.1 nM; in assay [2] it was 0.413 nM.

As to `CC[C@H](C)[C@H](NC(=O)[C@H](CO)NC(=O)[C@@H](NC(=O)[C@H](Cc1ccc(O)cc1)NC(=O)[C@H](CCC(N)=O)NC(=O)[C@H](CCCCN)NC(=O)[C@H](CCCCN)NC(=O)[C@H](CCCCN)NC(=O)[C@H](CC(C)C)NC(=O)[C@H](CCSC)NC(=O)[C@@H](N)C(C)C)[C@@H](C)O)C(=O)N[C@@H](Cc1c[nH]cn1)C(=O)N[C@@H](Cc1c[nH]cn1)C(=O)NCC(=O)N[C@H](C(=O)N[C@H](C(=O)N[C@@H](CCC(=O)O)C(=O)N[C@H](C(=O)N[C@@H](CC(=O)O)C(=O)N[C@@H](C)C(=O)N[C@@H](C)C(=O)N[C@H](C(=O)N[C@H](C(=O)N1CCC[C@H]1C(=O)N[C@@H](CCC(=O)O)C(=O)N[C@@H](CCC(=O)O)C(=O)N[C@@H](CCCNC(=N)N)C(=O)N[C@@H](Cc1c[nH]cn1)C(=O)N[C@@H](CC(C)C)C(=O)N[C@@H](CO)C(=O)N[C@@H](CCCCN)C(=O)N[C@@H](CCSC)C(=O)N[C@@H](CCC(N)=O)C(=O)N[C@@H](CCC(N)=O)C(=O)N[C@@H](CC(N)=O)C(=O)NCC(=O)N[C@@H](Cc1ccc(OP(=O)(O)O)cc1)C(=O)N[C@@H](CCC(=O)O)C(=O)N[C@@H](CC(N)=O)C(=O)N1CCC[C@H]1C(=O)N[C@H](C(=O)N[C@@H](Cc1ccc(O)cc1)C(=O)N[C@@H](CCCCN)C(=O)N[C@@H](Cc1ccccc1)C(=O)N[C@@H](Cc1ccccc1)C(=O)N[C@@H](CCC(=O)O)C(=O)N[C@@H](CCC(N)=O)C(=O)N[C@@H](CCSC)C(=O)N[C@@H](CCC(N)=O)C(=O)N[C@@H](CC(N)=O)C(=O)O)[C@@H](C)O)[C@@H](C)O)C(C)C)C(C)C)C(C)C)C(C)C` [AIDpY], the Kd in assay [3] came out at 997 nM; in assay [2] it was 2.57 nM.
